Columns and labels:
CYP3A4 = target: T1, CYP3A4 (Homo sapiens, UniProt P08684); assay: CYP inhibition screening, recombinant enzyme (fluorescent-based) assay; format: in vitro ADME
T1 construct: purchased Gentest, BD Biosciences

CYP2C9 = target: T2, CYP2C9 (Homo sapiens, UniProt P11712); assay: as above; format: in vitro ADME; details: for Inhibition of CYP2C9 activity (in words): human, 30 min
T2 construct: purchased Gentest, BD Biosciences

ER-β = target: T3, ER-β (Rattus norvegicus, UniProt Q62986); assay: Transient transfection luciferase transactivation assay in HEK-293 cells; format: cell-based; details: for ER-β transactivation, agonist mode (in words): up to the highest tested concentration (1 μM); for Inhibition of estradiol-induced ER-β activity, antagonist mode (in words): with 1 nM estradiol
T3 construct: expressed in transfected cells; host or cells: HEK-293
T3 sequence (Q62986 whole entry): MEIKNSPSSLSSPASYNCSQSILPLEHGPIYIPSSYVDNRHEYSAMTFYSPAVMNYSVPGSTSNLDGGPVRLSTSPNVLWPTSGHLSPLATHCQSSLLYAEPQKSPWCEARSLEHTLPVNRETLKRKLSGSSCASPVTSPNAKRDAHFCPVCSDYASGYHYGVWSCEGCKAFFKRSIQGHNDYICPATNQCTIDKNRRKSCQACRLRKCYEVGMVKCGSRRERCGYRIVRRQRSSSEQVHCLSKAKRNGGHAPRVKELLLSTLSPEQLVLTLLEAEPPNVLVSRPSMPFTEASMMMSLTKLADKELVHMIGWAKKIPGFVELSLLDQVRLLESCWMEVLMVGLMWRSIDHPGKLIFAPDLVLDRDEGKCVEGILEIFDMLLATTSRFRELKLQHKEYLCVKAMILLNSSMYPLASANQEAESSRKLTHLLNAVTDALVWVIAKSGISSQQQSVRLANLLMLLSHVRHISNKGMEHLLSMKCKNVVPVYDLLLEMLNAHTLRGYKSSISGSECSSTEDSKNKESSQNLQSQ

GR = target: T4, GR (Rattus norvegicus, UniProt P06536); assay: as above; format: cell-based; details: for GR-mediated transactivation, agonist mode (in words): all tested concentrations; for Inhibition of dexamethasone-induced GR-mediated transactivation, antagonist mode (in words): with 1 nM dexamethasone
T4 construct: expressed in transfected cells; host or cells: HEK-293
T4 sequence (P06536 1-795): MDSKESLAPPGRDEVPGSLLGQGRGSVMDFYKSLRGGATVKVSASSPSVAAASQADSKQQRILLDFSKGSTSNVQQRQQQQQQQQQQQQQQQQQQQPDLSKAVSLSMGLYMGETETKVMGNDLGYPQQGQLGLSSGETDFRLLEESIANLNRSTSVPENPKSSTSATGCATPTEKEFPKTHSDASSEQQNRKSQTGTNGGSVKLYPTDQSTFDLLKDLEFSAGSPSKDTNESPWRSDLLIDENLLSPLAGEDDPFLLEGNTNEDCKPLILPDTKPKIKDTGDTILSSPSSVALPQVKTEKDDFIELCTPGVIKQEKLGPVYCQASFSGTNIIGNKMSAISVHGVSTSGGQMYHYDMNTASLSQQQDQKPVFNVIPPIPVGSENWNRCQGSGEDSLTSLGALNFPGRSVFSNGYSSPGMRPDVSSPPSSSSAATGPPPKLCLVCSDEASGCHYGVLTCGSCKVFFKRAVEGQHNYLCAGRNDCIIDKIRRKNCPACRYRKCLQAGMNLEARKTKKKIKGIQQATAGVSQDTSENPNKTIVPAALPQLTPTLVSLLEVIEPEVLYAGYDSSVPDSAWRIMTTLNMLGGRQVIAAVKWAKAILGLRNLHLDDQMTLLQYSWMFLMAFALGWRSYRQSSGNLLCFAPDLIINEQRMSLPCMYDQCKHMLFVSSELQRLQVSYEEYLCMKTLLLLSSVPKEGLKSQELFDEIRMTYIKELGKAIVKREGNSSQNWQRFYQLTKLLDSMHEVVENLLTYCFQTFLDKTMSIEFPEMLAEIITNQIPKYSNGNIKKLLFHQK

PR = target: T5, PR (Rattus norvegicus, UniProt Q63449); assay: as above; format: cell-based; details: for PR-mediated transactivation, agonist mode (in words): all tested concentrations
T5 construct: expressed in transfected cells; host or cells: HEK-293
T5 sequence (Q63449 1-923): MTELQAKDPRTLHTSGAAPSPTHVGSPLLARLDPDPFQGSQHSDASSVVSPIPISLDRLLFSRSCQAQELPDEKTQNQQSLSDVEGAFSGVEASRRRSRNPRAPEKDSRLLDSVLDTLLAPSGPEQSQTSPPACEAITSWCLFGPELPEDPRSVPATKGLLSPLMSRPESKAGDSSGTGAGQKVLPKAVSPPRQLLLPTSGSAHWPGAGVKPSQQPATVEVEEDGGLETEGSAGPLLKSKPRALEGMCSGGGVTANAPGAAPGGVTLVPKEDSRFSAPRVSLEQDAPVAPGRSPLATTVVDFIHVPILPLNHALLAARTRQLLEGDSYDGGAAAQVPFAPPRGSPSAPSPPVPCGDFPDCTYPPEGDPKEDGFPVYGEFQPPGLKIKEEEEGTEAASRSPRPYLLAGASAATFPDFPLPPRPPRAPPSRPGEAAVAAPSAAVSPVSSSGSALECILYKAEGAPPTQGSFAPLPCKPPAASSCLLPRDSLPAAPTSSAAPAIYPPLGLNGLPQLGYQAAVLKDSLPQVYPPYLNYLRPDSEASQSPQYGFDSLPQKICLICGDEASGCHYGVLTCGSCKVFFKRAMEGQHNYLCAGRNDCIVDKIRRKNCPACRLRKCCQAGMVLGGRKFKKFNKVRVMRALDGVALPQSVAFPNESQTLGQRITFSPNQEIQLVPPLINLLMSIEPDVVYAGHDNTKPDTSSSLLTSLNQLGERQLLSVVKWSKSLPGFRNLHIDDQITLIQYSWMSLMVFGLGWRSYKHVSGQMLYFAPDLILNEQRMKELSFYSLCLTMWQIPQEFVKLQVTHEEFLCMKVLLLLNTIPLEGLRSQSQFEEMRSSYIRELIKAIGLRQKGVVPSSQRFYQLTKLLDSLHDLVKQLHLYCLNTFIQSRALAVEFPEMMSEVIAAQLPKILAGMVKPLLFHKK

MR = target: T6, MR (Rattus norvegicus, UniProt P22199); assay: as above; format: cell-based; details: for MR-mediated transactivation, agonist mode (in words): all tested concentrations; for Inhibition of aldosterone-induced MR-mediated transactivation, antagonist mode (in words): with 1 nM aldosterone
T6 construct: expressed in transfected cells; host or cells: HEK-293
T6 sequence (P22199 1-981): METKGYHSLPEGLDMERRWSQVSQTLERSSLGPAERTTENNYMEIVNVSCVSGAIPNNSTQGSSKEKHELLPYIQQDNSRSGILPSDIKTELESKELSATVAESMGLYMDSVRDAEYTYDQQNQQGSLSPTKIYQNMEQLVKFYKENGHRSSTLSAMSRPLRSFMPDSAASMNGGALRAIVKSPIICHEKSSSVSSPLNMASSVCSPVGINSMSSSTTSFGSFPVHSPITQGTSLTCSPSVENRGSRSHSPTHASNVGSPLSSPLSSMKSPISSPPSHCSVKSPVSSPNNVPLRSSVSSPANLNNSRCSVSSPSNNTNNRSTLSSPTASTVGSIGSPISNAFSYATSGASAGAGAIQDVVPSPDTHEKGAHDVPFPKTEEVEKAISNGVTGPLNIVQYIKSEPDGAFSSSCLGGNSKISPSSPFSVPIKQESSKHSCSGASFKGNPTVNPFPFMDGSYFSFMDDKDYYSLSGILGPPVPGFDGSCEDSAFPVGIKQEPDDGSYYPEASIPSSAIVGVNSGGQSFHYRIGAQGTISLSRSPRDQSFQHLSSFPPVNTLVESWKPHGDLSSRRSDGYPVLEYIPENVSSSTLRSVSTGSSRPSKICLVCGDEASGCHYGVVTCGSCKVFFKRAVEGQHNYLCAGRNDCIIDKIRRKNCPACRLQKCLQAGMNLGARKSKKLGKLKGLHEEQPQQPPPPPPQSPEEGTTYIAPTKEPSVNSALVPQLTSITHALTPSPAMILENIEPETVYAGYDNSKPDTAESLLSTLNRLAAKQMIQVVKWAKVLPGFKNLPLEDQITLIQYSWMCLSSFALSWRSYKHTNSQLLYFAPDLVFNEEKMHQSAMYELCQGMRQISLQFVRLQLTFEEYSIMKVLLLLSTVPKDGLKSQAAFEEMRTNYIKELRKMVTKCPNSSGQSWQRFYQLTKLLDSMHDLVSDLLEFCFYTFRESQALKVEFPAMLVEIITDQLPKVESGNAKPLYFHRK

[1] = 1 and 10 μM, with 1 nM progesterone

T1 sequence (P08684 whole entry): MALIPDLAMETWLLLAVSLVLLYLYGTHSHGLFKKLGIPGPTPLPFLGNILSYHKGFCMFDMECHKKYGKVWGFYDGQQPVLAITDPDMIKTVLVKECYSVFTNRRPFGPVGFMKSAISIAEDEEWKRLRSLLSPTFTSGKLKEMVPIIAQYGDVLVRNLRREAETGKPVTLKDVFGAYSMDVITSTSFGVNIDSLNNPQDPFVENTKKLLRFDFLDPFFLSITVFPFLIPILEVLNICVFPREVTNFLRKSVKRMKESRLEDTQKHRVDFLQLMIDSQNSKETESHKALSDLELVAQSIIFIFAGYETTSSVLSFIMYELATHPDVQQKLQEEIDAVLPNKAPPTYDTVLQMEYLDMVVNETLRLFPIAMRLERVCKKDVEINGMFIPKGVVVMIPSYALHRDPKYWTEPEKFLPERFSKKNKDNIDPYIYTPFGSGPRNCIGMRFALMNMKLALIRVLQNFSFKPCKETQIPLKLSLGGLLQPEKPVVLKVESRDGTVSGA
T2 sequence (P11712 whole entry): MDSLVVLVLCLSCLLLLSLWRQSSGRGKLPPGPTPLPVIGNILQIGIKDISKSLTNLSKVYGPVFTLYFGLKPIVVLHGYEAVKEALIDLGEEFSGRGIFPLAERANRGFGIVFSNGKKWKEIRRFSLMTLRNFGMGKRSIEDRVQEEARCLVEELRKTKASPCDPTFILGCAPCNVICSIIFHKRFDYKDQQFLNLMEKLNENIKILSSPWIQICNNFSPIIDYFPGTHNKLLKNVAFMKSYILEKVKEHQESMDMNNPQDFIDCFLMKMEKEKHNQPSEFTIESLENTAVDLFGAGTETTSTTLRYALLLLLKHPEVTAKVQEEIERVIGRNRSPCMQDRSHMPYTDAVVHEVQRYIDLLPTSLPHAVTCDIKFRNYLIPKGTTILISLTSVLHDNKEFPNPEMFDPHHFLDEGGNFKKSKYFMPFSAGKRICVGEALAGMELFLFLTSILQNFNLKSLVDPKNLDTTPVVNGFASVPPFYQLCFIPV

SMILES	IC50 (CYP3A4)	IC50 (CYP2C9)	Inhibition of CYP2C9 activity (in words) (CYP2C9)	ER-β transactivation, agonist mode (in words) (ER-β)	Inhibition of estradiol-induced ER-β activity, antagonist mode (in words) (ER-β)	GR-mediated transactivation, agonist mode (in words) (GR)	Inhibition of dexamethasone-induced GR-mediated transactivation, antagonist mode (in words) (GR)	Inhibition of PR activity, antagonist mode (in words) (PR; 0.1 μM and 10 μM)	Increase of PR transactivation, agonist mode (PR; 1 μM)	Inhibition of PR-mediated transactivation, antagonist mode (in words) (PR; 1 μM)	Increase of PR transactivation, agonist mode (PR; 10 μM)	PR-mediated transactivation, agonist mode (in words) (PR)	PR antagonistic activity relative to RU486 (fold weaker) (PR; versus RU486)	PR agonist potency relative to progesterone (fold weaker) (PR; versus endogenous agonist progesterone)	MR-mediated transactivation, agonist mode (in words) (MR)	Inhibition of aldosterone-induced MR-mediated transactivation, antagonist mode (in words) (MR)	Inhibition of PR activity, antagonist mode (in words) (PR; [1])
C[C@](O)(COc1ccc(C#N)cc1)C(=O)Nc1ccc(C#N)c(Cl)c1 [S-(I), (S)—N-(3-chloro-4-cyanophenyl)-3-(4-cyanophenoxy)-2-hydroxy-2-methylpropanamide]	> 20 µM	5.1 µM	did not appreciably inhibit	failed to activate	failed to alter	failed to activate	failed to alter	significantly partially inhibited	3 fold	completely inhibited	8 fold	partial agonist activity	about 1,000 fold	greater than 10,000 fold	failed to activate	failed to alter	
C[C@](O)(COc1ccc(F)cc1)C(=O)Nc1ccc(C#N)c(C(F)(F)F)c1 [S-(III)]	> 20 µM	1.3 µM	moderate inhibition	failed to activate	failed to alter	did not induce	not inhibited					did not induce			did not induce	not inhibited	significantly inhibited
C[C@](O)(COc1ccc(Cl)cc1)C(=O)Nc1ccc(C#N)c(C(F)(F)F)c1 [S-(II)]	> 20 µM	3.8 µM	moderate inhibition	failed to activate	failed to alter	did not induce	not inhibited					did not induce			did not induce	not inhibited	significantly inhibited
